1 compound from patent US20250135020A1, “METHODS FOR TREATING NON-MUSCLE INVASIVE BLADDER CANCER (NMIBC) WITH ANTIBODY DRUG CONJUGATES (ADC) THAT BIND TO 191P4D12 PROTEINS” (priority 2021, published 2025) can be followed below.

The assay deals with Nectin-4 overexpressing bladder carcinoma cells (UM-UC-3-hNectin-4+). Description: In vitro cytotoxic activity under conditions that mimic intravesical dosing (Cell TiterGlo). Format: cell-based, human. The note with it: UM-UC-3-hNectin-4+ cells; 2 h exposure then wash out vs 96 h; cell death by Cell TiterGlo.

SMILES strings stand for the structures. Non-standard residues stand in square brackets, D forms with d. Residues, ends and D or L forms follow the SMILES beside them. *: point of attachment. Dolaproine = CO[C@@H]([C@@H]1CCCN1)[C@@H](C)C(=O)O; Dil = CC[C@H](C)[C@H](NC)[C@@H](CC(=O)O)OC; X1 = C[C@@H](N*)[C@@H](O)c1ccccc1; NMeV = CN[C@H](C(=O)O)C(C)C

Method: To assess cytotoxic activity of EV in vitro under conditions that mimic intravesical dosing, Nectin-4 overexpressing bladder carcinoma cells (UM-UC-3-hNectin-4^+) were exposed to either EV, unconjugated anti-Nectin-4 antibody, unconjugated MMAE, or control ADC (FIG. 2). IV dosing was modeled by exposing the cells for 96 hours. Intravesical dosing was modeled with exposures of 2 and 24 hours followed by test article wash out. Cell death was measured using Cell TiterGlo® (Promega Corporation, Madison, WI, USA).

For the compound `CC[C@H](C)[C@@H]([C@@H](CC(=O)N1CCC[C@H]1[C@H](OC)[C@@H](C)C(=O)N[C@H](C)[C@@H](O)c1ccccc1)OC)N(C)C(=O)[C@@H](NC(=O)[C@@H](NC)C(C)C)C(C)C` [unconjugated MMAE, monomethyl auristatin E] (H-[NMeV]V[Dil][Dolaproine]-X1), the “Decrease in potency (EC90) on decreasing the exposure from 96 to 2 hours” value stood at 44 fold.
